Measured values as given in patent publication US20250223301A1, “KINASE INHIBITORS, PREPARATION METHODS AND USES THEREOF” (InventisBio Co., Ltd., priority 2022, published 2025).

Tests used:
PBMC = test: Human PBMC IL-2 assay; type: cell-based; conditions: anti-CD3/CD28 stimulation overnight, IL-2 level
Protocol: PBMC (frozen) obtained from health donor were thawed in RPMI-1640 medium with 10% FBS and incubated for 4 h at 37° C. In a 96-well plate, −200,000 PBMC cells in 160 uL were added to each assay well. Ten microliter compound solution (10 uM to 0.6 nM, 8 points with 4-fold dilution) were added to cells in each well and incubated for 60 minutes at 37° C. Then 30 uL anti-CD3/CD28 antibody (Catalog #10991, Stemcell) were added to cells and incubated overnight at 37° C. After the incubation, 16 uL supernatants were transferred into a new 384-well white assay plate for cytokine analysis. IL-2 level was quantified using Human IL-2 kit (Catalog #62HIL02PEG, Cisbio) as described in the manufacturer manual.
(§1) X is log of compound concentration, Y is the IL-2 concentration, increasing as X increases.

Jurkat cells = test: Jurkat IL-2 assay; type: cell-based; conditions: Homo sapiens, anti-CD3/CD28 stimulation overnight, IL-2 level
Protocol: Jurkat cells (ATCC) were cultured in RPMI-1640 medium supplemented with 10% FBS. In a 96-well plate, −250,000 cells in 130 uL were added to each assay well. Ten microliter compound solution (5 uM to 2.3 nM, 8 points with 3-fold dilution) were added to cells in each well and incubated for 60 minutes at 37° C. Then 10 uL anti-CD3/CD28 antibody (Catalog #10991, Stemcell) were added and incubated overnight at 37° C. After the incubation, 16 uL supernatants were transferred into a new 384-well white assay plate for cytokine analysis. IL-2 was quantified using Human IL-2 kit (Catalog #62HIL02PEG, Cisbio) as described in the manufacturer manual.
as §1

| SMILES | EC50 (Jurkat cells) | EC50 (PBMC) |
| --- | --- | --- |
| C[C@@H]1CN2c3c(c(=O)n(C)c4ccc(C#N)nc34)OC[C@@H]2CN1[C@@H](C)c1ccc(Cl)cc1F (stereo in doubt) [Compound 275] | 51 nM | 23 nM |
| C[C@@H]1CN2c3c(c(=O)n(C)c4ccc(C#N)nc34)OC[C@@H]2CN1[C@@H](C)c1ccc(Cl)c(Cl)c1 (stereo in doubt) [Compound 257] | 132 nM | 119 nM |
| CC[C@H]1CN([C@@H](CC)c2ccc(F)cc2F)[C@H](CC)CN1c1nc2nncn2c2ccc(C#N)nc12 (stereo in doubt) [Compound 194] | 104 nM | 79 nM |
| C[C@@H]1CN2c3c(c(=O)n(C)c4ccc(C#N)nc34)OC[C@@H]2CN1[C@@H](C)c1ccc(Cl)cc1Cl (stereo in doubt) [Compound 268] |  | 890 nM |
| CC[C@@H]1CN2c3c(c(=O)n(C)c4ccc(C#N)nc34)N(C)C[C@@H]2CN1[C@H](CC)c1ccc(C(F)(F)F)cc1 [Compound 220] |  | 3840 nM |
| CCC[C@@H](c1ccc(Cl)cc1)N1C[C@H]2COc3c(c4nc(C#N)ccc4n(C)c3=O)N2C[C@H]1CC (stereo in doubt) [Compound 311] | 54 nM | 1 nM |
| CCC[C@@H]1CN2c3c(c(=O)n(C)c4ccc(C#N)nc34)OC[C@@H]2CN1[C@H](C)c1ccc(OCC2CC2)cc1F (stereo in doubt) [Compound 164] |  | 233 nM |
| CC[C@@H]1CN2c3c(c(=O)n(C)c4ccc(C#N)nc34)OC[C@@H]2CN1[C@H](CC)c1ccc(F)c(F)c1 (stereo in doubt) [Compound 182] |  | 1880 nM |
| CC[C@H]1CN([C@H](CC)c2ccc(C3CC3)nc2)[C@H](CC)CN1c1nc2nncn2c2ccc(C#N)nc12 (stereo in doubt) [Compound 189] |  | 276 nM |
| CC[C@H](c1ccc(C(F)(F)F)cc1)N1C[C@H]2COc3c(c4nc(C#N)ccc4n(C)c3=O)N2C[C@H]1C (stereo in doubt) [Compound 178] |  | 299 nM |
| CC[C@@H]1CN2c3c(c(=O)n(C)c4ccc(C#N)nc34)OC[C@@H]2CN1[C@H](CC)c1ccc(S(C)(=O)=O)cc1 (stereo in doubt) [Compound 185] |  | 7230 nM |
| CC[C@H](c1ccc(F)c(Cl)c1)N1C[C@H]2COc3c(c4nc(C#N)ccc4n(C)c3=O)N2C[C@H]1C (stereo in doubt) [Compound 237] |  | 1330 nM |
| CC[C@H]1CN([C@@H](CC)c2ccc(C3CC3)nc2)[C@H](CC)CN1c1nc2nncn2c2ccc(C#N)nc12 (stereo in doubt) [Compound 188] |  | 577 nM |
| Cc1ccc2oc(C3(C)CCN(c4c(C#N)c(=O)n(C)c5ccc(C#N)nc45)CC3)nc2c1 [Compound 7] |  | 372 nM |
| CC[C@H]1CN2[C@@H](COC[C@@H]2c2ccc(C(F)(F)F)cc2)CN1c1nc2nncn2c2ccc(C#N)nc12 [Compound 192] |  | 3050 nM |
| CC[C@@H]1CN2c3c(c(=O)n(C)c4ccc(C#N)nc34)OC[C@@H]2CN1[C@H](CC)c1ccc(C(F)(F)F)cn1 (stereo in doubt) [Compound 187] |  | 322 nM |
| CC[C@@H]1CN2c3c(c(=O)n(C)c4ccc(C#N)nc34)OC[C@@H]2CN1c1nc2cc(C)ccc2o1 [Compound 165] |  | 375 nM |
| CCC[C@@H]1CN2c3c(c(=O)n(C)c4ccc(C#N)nc34)OC[C@@H]2CN1[C@@H](C)c1ccc(OCC2CC2)cc1F (stereo in doubt) [Compound 163] |  | 340 nM |
| CC[C@@H]1CN2c3c(c(=O)n(C)c4ccc(C#N)nc34)OC[C@@H]2CN1[C@H](CC)c1c(F)ccc(F)c1F (stereo in doubt) [Compound 171] |  | 1250 nM |

Now from value to molecule, other results behind:

| EC50 (Jurkat cells) | SMILES | EC50 (PBMC) |
| --- | --- | --- |
| 10 nM | CC[C@@H]1CN2c3c(c(=O)n(C)c4ccc(C#N)nc34)OC[C@@H]2CN1[C@@H](CC)c1ccc(C(F)F)cc1 (stereo in doubt) [Compound 291] | 11 nM |
| 277 nM | CCC[C@@H]1CN2c3c(c(=O)n(C)c4ccc(C#N)nc34)OC[C@@H]2CN1[C@H](C)c1ccc(C(F)(F)F)cc1 (stereo in doubt) [Compound 158] | 579 nM |
| 91 nM | CC[C@@H]1CN2c3c(c(=O)n(C)c4ccc(C#N)nc34)OC[C@@H]2CN1[C@@H](c1ccc(C(F)(F)F)cc1)C1CC1 [Compound 346] | 138 nM |
| 526 nM | CC[C@H]1CN(C2CCCOc3cc(C(F)(F)F)ccc32)[C@H](CC)CN1c1nc(=O)n(C)c2ccc(C#N)nc12 (stereo partly drawn) [Compound 154] | 734 nM |
| 248 nM | CC[C@H]1CN([C@@H](CC)c2ccc(C(F)(F)F)cc2C)[C@H](CC)CN1c1nc2nncn2c2ccc(C#N)nc12 (stereo in doubt) [Compound 137] | 96 nM |
| 86 nM | CC[C@@H]1CN2c3c(c(=O)n(C)c4ccc(C#N)nc34)OC[C@@H]2CN1[C@H](CC)c1ccc(C)c(F)c1 (stereo in doubt) [Compound 338] | 153 nM |
| 483 nM | CC[C@@H]1CN2c3c(c(=O)n(C)c4ccc(C#N)nc34)OC[C@@H]2CN1[C@H](CC)c1ccc(C(F)(F)F)cc1F (stereo in doubt) [Compound 143] | 178 nM |
| 359 nM | CC[C@@H](c1ccc(Cl)c(C(F)(F)F)c1)N1C[C@H]2COc3c(c4nc(C#N)ccc4n(C)c3=O)N2C[C@H]1C (stereo in doubt) [Compound 318] | 349 nM |
| 144 nM | C[C@@H]1CN2c3c(c(=O)n(C)c4ccc(C#N)nc34)OC[C@@H]2CN1[C@H](C)c1ccc(C(F)(F)F)cc1 (stereo in doubt) [Compound 222] | 154 nM |
| 9 nM | CC[C@@H]1CN2c3c(c(=O)n(C)c4ccc(C#N)nc34)OC[C@@H]2CN1[C@H](c1ccc(C(F)(F)F)cc1)C1CC1 [Compound 347] | 13 nM |
| 822 nM | CC[C@H]1CN([C@H](CC)c2ccc(F)c(F)c2)[C@H](CC)CN1c1nc2nncn2c2ccc(C#N)nc12 (stereo in doubt) [Compound 201] | 520 nM |
| 91 nM | CC[C@@H]1CN2c3c(c(=O)n(C)c4ccc(C#N)nc34)OC[C@@H]2CN1[C@H](CC)c1ccc(Cl)c(F)c1 (stereo in doubt) [Compound 296] | 68 nM |
| 687 nM | CC[C@@H]1CN2c3c(c(=O)n(C)c4ccc(C#N)nc34)OC[C@@H]2CN1[C@H](CC)c1c(Cl)cccc1Cl (stereo in doubt) [Compound 239] | 3420 nM |
| 98 nM | CC[C@@H]1CN2c3c(c(=O)n(C)c4ccc(C#N)nc34)OC[C@@H]2CN1[C@H](CO)c1ccc(C(F)(F)F)cc1 (stereo in doubt) [Compound 236] | 583 nM |
| 364 nM | CC[C@H](c1ccc(C(F)(F)F)c(Cl)c1)N1C[C@H]2COc3c(c4nc(C#N)ccc4n(C)c3=O)N2C[C@H]1C (stereo in doubt) [Compound 323] | 474 nM |
| 707 nM | CC[C@H]1CN([C@@H](C)c2ccc(C(F)(F)F)cc2)[C@H](C)CN1c1nc2nncn2c2ccc(C#N)nc12 (stereo in doubt) [Compound 316] | 742 nM |
| 16 nM | CC[C@@H]1CN2c3c(c(=O)n(C)c4ccc(C#N)nc34)OC[C@@H]2CN1[C@@H](CC)c1ccc(C(C)(F)F)cc1 [Compound 289] | 7 nM |
| 506 nM | C[C@@H]1CN2c3c(c(=O)n(C)c4ccc(C#N)nc34)OC[C@@H]2CN1[C@H](C)c1ccc(Cl)cc1 (stereo in doubt) [Compound 270] | 616 nM |
| 45 nM | CC[C@@H]1CN2c3c(c(=O)n(C)c4ccc(C#N)nc34)OC[C@@H]2CN1[C@@H](CC)c1ccc(C)c(Cl)c1 (stereo in doubt) [Compound 343] | 18 nM |
| 26 nM | CC[C@@H]1CN2c3c(c(=O)n(C)c4ccc(C#N)nc34)OC[C@@H]2CN1[C@@H](CC)c1ccc(C#N)cc1 (stereo in doubt) [Compound 161] | 53 nM |
| 124 nM | CC[C@@H]1CN2c3c(c(=O)n(C)c4ccc(C#N)nc34)OC[C@@H]2CN1[C@H](c1ccc(Cl)cc1)c1ccccn1 (stereo in doubt) [Compound 156] | 83 nM |
| 76 nM | CC[C@@H]1CN2c3c(c(=O)n(C)c4ccc(C#N)nc34)OC[C@@H]2CN1[C@@H](CC)c1cccc(C(F)(F)F)c1 (stereo in doubt) [Compound 149] | 162 nM |
| 95 nM | CC[C@@H](c1ccc(C(F)(F)F)c(Cl)c1)N1C[C@H]2COc3c(c4nc(C#N)ccc4n(C)c3=O)N2C[C@H]1C (stereo in doubt) [Compound 324] | 49 nM |
| 34 nM | C[C@@H]1CN2c3c(c(=O)n(C)c4ccc(C#N)nc34)OC[C@@H]2CN1[C@@H](C)c1ccc(C(C)(F)F)cc1 (stereo in doubt) [Compound 304] | 24 nM |
| 758 nM | C[C@@H]1CN2c3c(c(=O)n(C)c4ccc(C#N)nc34)OC[C@@H]2CN1[C@H](C)c1ccc(Cl)c(Cl)c1 (stereo in doubt) [Compound 258] | 1100 nM |
| 582 nM | CC[C@@H]1CN2c3c(c(=O)n(C4CCC4)c4ccc(C#N)nc34)OC[C@@H]2CN1[C@@H](CC)c1ccc(C(F)(F)F)cc1 (stereo in doubt) [Compound 263] |  |
| 435 nM | C[C@H]1CC2(CCN1c1nc(=O)n(C)c3ccc(C#N)nc13)CC(c1ccc(OC(F)(F)F)cc1)=NO2 (stereo partly drawn) [Compound 50] |  |
